Target: human GCGR (Homo sapiens (Human), UniProt P47871)
Assay: Cellular functional assay, cAMP readout (glucagon-stimulated cAMP in HEK293 cells expressing human GCGR)
Type: cell-based
Conditions: hGluc-1 HEK cells, LANCE TR-FRET, IC50 converted to Ki, average if tested more than once
Description: IC50 Values in Cellular Functional Assays: cAMP Readout
Full-length human GCGR (Accession Number: NM000160) subcloned into pcDNA3.1 was stably transfected into HEK293 cells (hGluc-1 HEK) and maintained under G418 selection (500 μg/mL). Cell cultures were maintained in DMEM/F12 media supplemented with 10% FBS and 1% GlutaMax. Glucagon stimulated cAMP was quantified using LANCE technology as per manufacturer instructions. On the day of the experiment, spent media was removed and cells were washed with Hank's Buffered Saline solution (HBSS) and cells were harvested with non-enzymatic cell dissociation solution, then washed once with HBSS. Cells were re-suspended in stimulation buffer at a concentration of 0.83×10^6 cells/ml and cAMP detection antibody was added. 6 μl/well of this solution was then dispensed in a 384 well plate (cell density 5000 cells/well). Test compound was serially diluted in DMSO and 50 nl were dispensed on top of the cell solution and allowed to incubate for 30 minutes. 6 μl of a 2× glucagon solution (final concentration in assay […]) was then added and the reaction was terminated after 5 minutes with the addition of detection mix. The mixture was incubated, protected from light for 1.5 h. cAMP levels were quantified by TR-FRET in an EnVision instrument against a known standard. IC50's were generated by using a non-linear regression macro driven in Excel and converted to K, values.

Sequence of human GCGR (P47871 26-477): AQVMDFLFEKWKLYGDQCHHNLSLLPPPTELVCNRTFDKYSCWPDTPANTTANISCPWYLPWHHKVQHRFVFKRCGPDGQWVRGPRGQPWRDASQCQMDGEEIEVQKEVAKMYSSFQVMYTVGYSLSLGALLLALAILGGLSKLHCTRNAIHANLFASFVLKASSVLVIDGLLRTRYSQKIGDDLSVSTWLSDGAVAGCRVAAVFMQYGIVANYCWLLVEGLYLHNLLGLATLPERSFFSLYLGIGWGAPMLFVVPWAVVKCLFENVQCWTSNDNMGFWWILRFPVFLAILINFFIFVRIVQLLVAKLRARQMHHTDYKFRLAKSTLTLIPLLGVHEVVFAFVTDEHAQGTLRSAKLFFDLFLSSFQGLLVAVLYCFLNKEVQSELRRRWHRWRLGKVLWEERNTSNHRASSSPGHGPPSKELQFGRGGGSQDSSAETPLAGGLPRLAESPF

Ki | SMILES
10 nM | Cc1cc(Cl)ccc1-c1ccc(NCc2c(-c3ccc(C(=O)NCCC(=O)O)nc3)cc(C(F)(F)F)cc2C(F)(F)F)cc1 [Compound 81, 3-(5-(2-(((4′-chloro-2′-methyl-[1,1′-biphenyl]-4-yl)amino)methyl)-3,5-bis(trifluoromethyl)phenyl)picolinamido)propanoic acid]
6.4 nM | Cc1cc(Cl)ccc1-c1ccc(NCc2c(C)cc(C(F)(F)F)cc2-c2ccc(C(=O)NCCC(=O)O)nc2)cc1Cl [Compound 165, 3-(5-(2-(((2,4′-dichloro-2′-methyl-[1,1′-biphenyl]-4-yl)amino)methyl)-3-methyl-5-(trifluoromethyl)phenyl)picolinamido)propanoic acid]
14.4 nM | Cc1cc(C(F)(F)F)cc(-c2ccc(C(=O)NCCC(=O)O)nc2)c1CNc1ccc(-c2ccc(C(F)(F)F)cc2)c(Cl)c1 [Compound 163]
110 nM | O=C(O)CCNC(=O)c1ccc(-c2cc(C(F)(F)F)ccc2CNc2ccc(-c3ccc(Cl)cc3)c(C(F)(F)F)c2)cn1 [Compound 123, 3-(5-(2-(((4′-chloro-2-(trifluoromethyl)-[1,1′-biphenyl]-4-yl)amino)methyl)-5-(trifluoromethyl)phenyl)picolinamido)propanoic acid]
10.8 nM | Cc1cc(C(F)(F)F)ccc1-c1ccc(NCc2c(-c3ccc(C(=O)NCCC(=O)O)nc3)cc(C(F)(F)F)cc2C(C)C)cc1Cl [Compound 167]
220 nM | O=C(O)CCNC(=O)c1ccc(-c2cc(C(F)(F)F)ccc2CNc2ccc(-c3ccc(Cl)cc3C(F)(F)F)cc2)cn1 [Compound 25]
70 nM | O=C(O)CCNC(=O)c1ccc(-c2cc(C(F)(F)F)ccc2CNc2ccc(-c3ccc(C(F)(F)F)cc3)c(C(F)(F)F)c2)cn1 [Compound 127, 3-(5-(2-(((2,4′-bis(trifluoromethyl)-[1,1′-biphenyl]-4-yl)amino)methyl)-5-(trifluoromethyl)phenyl)picolinamido)propanoic acid]
> 20000 nM | COc1ccc(CNc2ccc(-c3ccc(Cl)cc3Cl)cc2)c(-c2ccc(C(=O)NCCC(=O)O)nc2)c1 [Compound 46, 3-(5-(2-(((2′,4′-dichloro-[1,1′-biphenyl]-4-yl)amino)methyl)-5-methoxyphenyl)picolinamido)propanoic acid]
17.3 nM | O=C(O)CCNC(=O)c1ccc(-c2cc(C(F)(F)F)cc(C(F)(F)F)c2CNc2ccc(-c3ccc(Cl)cc3Cl)cc2)cn1 [Compound 87, 3-(5-(2-(((2′,4′-dichloro-[1,1′-biphenyl]-4-yl)amino)methyl)-3,5-bis(trifluoromethyl)phenyl)picolinamido)propanoic acid]
5.3 nM | Cc1cc(C(F)(F)F)ccc1-c1ccc(NCc2c(-c3ccc(C(=O)NCCC(=O)O)nc3)cc(C(F)(F)F)cc2C2CC2)cc1Cl [Compound 177, 3-(5-(2-(((2-chloro-2′-methyl-4′-(trifluoromethyl)-[1,1′-biphenyl]-4-yl)amino)methyl)-3-cyclopropyl-5-(trifluoromethyl)phenyl)picolinamido)propanoic acid]
36.7 nM | O=C(O)CCNC(=O)c1ccc(-c2cc(C(F)(F)F)cc(C(F)(F)F)c2CNc2ccc(-c3cccc(Cl)c3Cl)cc2)cn1 [Compound 84, 3-(5-(2-(((2′,3′-dichloro-[1,1′-biphenyl]-4-yl)amino)methyl)-3,5-bis(trifluoromethyl)phenyl)picolinamido)propanoic acid]
650 nM | COc1cc(C(F)(F)F)cc(-c2ccc(C(=O)NCCC(=O)O)nc2)c1CNc1cc(Cl)c(-c2ccc(Cl)cc2)c(Cl)c1 [Compound 160, 3-(5-(3-methoxy-2-(((2,4′,6-trichloro-[1,1′-biphenyl]-4-yl)amino)methyl)-5-(trifluoromethyl)phenyl)picolinamido)propanoic acid]
> 20000 nM | COc1ccc(CNc2ccc(-c3ccc(Cl)cc3)cc2)c(-c2ccc(C(=O)NCCC(=O)O)nc2)c1 [Compound 45, 3-(5-(2-(((4′-chloro-[1,1′-biphenyl]-4-yl)amino)methyl)-5-methoxyphenyl)picolinamido)propanoic acid]
